Converted amounts (≈) assume the structure as drawn.
What was measured:
[1] = biological target: Ribosomal protein S6 kinase alpha-6 (Homo sapiens) (UniProt Q9UK32); assay: Inhibition of wild-type human partial length N-terminal RSK4 kinase domain 1 (M1 to E397 residues) expressed in mammalian expression system assessed as residual activity at 1 uM by Kinomescan method relative to control
[2] = biological target: Serine/threonine-protein kinase 32C (Homo sapiens) (UniProt Q86UX6); assay: Inhibition of wild-type human partial length YANK3 (M68 to G486 residues) expressed in bacterial expression system assessed as residual activity at 1 uM by Kinomescan method relative to control
Chain of Serine/threonine-protein kinase 32C (Homo sapiens) (Q86UX6 whole entry, the tested form may be a part): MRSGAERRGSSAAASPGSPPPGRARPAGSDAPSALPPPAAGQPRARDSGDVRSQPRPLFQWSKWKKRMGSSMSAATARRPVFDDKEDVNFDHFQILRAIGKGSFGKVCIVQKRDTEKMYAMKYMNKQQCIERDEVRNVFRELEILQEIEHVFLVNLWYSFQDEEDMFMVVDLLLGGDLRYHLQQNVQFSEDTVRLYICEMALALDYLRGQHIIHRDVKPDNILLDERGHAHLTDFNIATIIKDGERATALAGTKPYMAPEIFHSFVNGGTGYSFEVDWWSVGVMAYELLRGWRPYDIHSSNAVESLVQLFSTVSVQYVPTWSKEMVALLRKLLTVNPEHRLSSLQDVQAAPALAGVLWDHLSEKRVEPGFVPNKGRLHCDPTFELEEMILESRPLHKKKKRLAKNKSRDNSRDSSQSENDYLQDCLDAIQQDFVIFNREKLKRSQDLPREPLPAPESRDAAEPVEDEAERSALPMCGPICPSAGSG

[3] = biological target: Activin receptor type-1-like (Homo sapiens) (UniProt P37023); assay: Inhibition of wild-type human partial length ACVRL1 (L164 to Q503 residues) expressed in bacterial expression system assessed as residual activity at 1 uM by Kinomescan method relative to control
[4] = biological target: Calcium/calmodulin-dependent protein kinase kinase 2 (Homo sapiens) (UniProt Q96RR4); assay: Inhibition of wild-type human partial length CAMKK2 (D65 to V471 residues) expressed in bacterial expression system assessed as residual activity at 1 uM by Kinomescan method relative to control
[5] = biological target: Misshapen-like kinase 1 (Homo sapiens) (UniProt Q8N4C8); assay: Inhibition of wild-type human partial length MINK (M1 to K312 residues) expressed in mammalian expression system assessed as residual activity at 1 uM by Kinomescan method relative to control
[6] = Solubility of the compound in FaSSIF measured after 4 hrs; assay type: physicochemical
[7] = In vivo inhibition of LRRK2 in Han-Wistar rat assessed as reduction in Ser935 phosphorylation in lung at 10 to 100 mg/kg, po by Western blot analysis; assay type: functional; design: scale not given: the % may be the effect or the level left; settings: dose 10-100 mg/kg
[8] = biological target: Phosphorylase b kinase gamma catalytic chain, skeletal muscle/heart isoform (Homo sapiens) (UniProt Q16816); assay: Inhibition of wild-type human full length PHKG1 (M1 to Y387 residues) expressed in bacterial expression system assessed as residual activity at 1 uM by Kinomescan method relative to control
[9] = biological target: Macrophage-stimulating protein receptor (Homo sapiens) (UniProt Q04912); assay: Inhibition of wild-type human partial length MST1R (I1057 to L1363 residues) expressed in bacterial expression system assessed as residual activity at 1 uM by Kinomescan method relative to control
[10] = biological target: Ephrin type-A receptor 4 (Homo sapiens) (UniProt P54764); assay: Inhibition of wild-type human partial length EPHA4 (T601 to R897 residues) expressed in bacterial expression system assessed as residual activity at 1 uM by Kinomescan method relative to control
Chain of Ephrin type-A receptor 4 (Homo sapiens) (P54764 whole entry, the tested form may be a part): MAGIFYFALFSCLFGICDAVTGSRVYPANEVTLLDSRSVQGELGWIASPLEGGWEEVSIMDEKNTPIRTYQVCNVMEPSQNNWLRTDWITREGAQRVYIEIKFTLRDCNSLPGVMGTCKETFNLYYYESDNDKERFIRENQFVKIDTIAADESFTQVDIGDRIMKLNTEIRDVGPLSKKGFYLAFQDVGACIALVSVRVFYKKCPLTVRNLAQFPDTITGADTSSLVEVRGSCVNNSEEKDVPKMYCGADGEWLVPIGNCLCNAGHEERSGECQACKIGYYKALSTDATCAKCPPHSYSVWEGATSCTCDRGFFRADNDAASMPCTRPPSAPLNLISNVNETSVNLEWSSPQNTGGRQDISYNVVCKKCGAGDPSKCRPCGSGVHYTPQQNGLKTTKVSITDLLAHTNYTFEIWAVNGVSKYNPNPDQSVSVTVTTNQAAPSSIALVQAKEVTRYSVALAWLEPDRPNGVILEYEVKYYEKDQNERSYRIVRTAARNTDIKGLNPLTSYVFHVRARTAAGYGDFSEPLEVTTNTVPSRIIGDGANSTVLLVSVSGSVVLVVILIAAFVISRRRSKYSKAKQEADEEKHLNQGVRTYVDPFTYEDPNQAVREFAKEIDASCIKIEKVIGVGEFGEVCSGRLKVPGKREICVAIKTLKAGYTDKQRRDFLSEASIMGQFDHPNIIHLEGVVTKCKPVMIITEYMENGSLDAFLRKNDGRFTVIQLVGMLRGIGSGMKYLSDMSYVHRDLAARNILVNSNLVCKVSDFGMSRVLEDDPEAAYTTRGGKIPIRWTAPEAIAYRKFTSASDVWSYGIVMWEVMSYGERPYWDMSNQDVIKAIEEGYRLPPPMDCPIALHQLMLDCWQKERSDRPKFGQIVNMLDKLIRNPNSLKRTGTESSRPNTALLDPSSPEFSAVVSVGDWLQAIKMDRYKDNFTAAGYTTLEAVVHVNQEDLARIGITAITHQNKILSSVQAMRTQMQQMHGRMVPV

[11] = biological target: Protein-tyrosine kinase 6 (Homo sapiens) (UniProt Q13882); assay: Inhibition of wild-type human partial length BRK (L166 to T451 residues) expressed in bacterial expression system assessed as residual activity at 1 uM by Kinomescan method relative to control
[12] = biological target: Insulin receptor-related protein (Homo sapiens) (UniProt P14616); assay: Inhibition of wild-type human partial length INSRR (R950 to E1278 residues) expressed in bacterial expression system assessed as residual activity at 1 uM by Kinomescan method relative to control
[13] = biological target: Casein kinase I isoform delta (Homo sapiens) (UniProt P48730); assay: Inhibition of CK1D (unknown origin) assessed as residual activity at 1 uM by Kinomescan method relative to control
Chain of Casein kinase I isoform delta (Homo sapiens) (P48730 whole entry, looked up, canonical isoform): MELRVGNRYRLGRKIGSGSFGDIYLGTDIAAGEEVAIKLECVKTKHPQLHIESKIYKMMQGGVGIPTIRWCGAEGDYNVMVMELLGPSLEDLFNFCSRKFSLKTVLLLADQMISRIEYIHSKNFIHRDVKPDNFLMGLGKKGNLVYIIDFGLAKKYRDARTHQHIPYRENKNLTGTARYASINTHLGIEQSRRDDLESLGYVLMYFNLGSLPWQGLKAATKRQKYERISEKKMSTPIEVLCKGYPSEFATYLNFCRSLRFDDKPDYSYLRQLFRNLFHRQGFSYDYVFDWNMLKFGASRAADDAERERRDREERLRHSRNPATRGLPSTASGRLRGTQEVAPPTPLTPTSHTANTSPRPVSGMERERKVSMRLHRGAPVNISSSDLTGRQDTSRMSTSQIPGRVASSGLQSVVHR

[14] = biological target: Macrophage colony-stimulating factor 1 receptor (Homo sapiens) (UniProt P07333); assay: Inhibition of FMS (unknown origin) assessed as residual activity at 1 uM by Kinomescan method relative to control
[15] = biological target: Calcium/calmodulin-dependent protein kinase type 1B (Homo sapiens) (UniProt Q6P2M8); assay: Inhibition of wild-type human partial length CAMK1B (W9 to A311 residues) expressed in mammalian expression system assessed as residual activity at 1 uM by Kinomescan method relative to control
Chain of Calcium/calmodulin-dependent protein kinase type 1B (Homo sapiens) (Q6P2M8 whole entry, the tested form may be a part): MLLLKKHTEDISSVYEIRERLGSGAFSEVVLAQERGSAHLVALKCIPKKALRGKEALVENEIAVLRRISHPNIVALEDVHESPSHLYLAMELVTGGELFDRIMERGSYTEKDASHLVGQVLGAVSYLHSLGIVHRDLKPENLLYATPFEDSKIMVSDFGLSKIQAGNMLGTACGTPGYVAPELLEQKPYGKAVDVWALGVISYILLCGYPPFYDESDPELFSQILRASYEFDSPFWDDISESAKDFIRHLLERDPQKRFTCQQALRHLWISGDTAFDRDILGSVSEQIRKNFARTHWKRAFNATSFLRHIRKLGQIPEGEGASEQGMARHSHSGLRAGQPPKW

[16] = biological target: Serine/threonine-protein kinase 38 (Homo sapiens) (UniProt Q15208); assay: Inhibition of wild-type human partial length NDR1 (N33 to E449 residues) expressed in mammalian expression system assessed as residual activity at 1 uM by Kinomescan method relative to control
Chain of Serine/threonine-protein kinase 38 (Homo sapiens) (Q15208 2-465 limits assumed): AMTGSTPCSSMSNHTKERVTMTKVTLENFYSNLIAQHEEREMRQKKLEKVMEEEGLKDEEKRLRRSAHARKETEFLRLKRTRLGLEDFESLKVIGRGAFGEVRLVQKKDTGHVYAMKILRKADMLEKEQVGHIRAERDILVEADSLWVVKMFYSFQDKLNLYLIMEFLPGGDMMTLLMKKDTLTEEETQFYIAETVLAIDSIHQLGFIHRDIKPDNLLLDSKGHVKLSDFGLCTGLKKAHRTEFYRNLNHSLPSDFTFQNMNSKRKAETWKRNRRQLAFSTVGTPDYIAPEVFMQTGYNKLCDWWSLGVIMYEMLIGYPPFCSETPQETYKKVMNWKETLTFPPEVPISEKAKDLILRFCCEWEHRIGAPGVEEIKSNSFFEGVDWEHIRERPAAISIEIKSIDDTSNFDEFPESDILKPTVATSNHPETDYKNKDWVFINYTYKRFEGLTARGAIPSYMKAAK

[17] = biological target: Homeodomain-interacting protein kinase 2 (Homo sapiens) (UniProt Q9H2X6); assay: Inhibition of wild-type human partial length HIPK2 (M153 to S564 residues) expressed in mammalian expression system assessed as residual activity at 1 uM by Kinomescan method relative to control
[18] = biological target: SRSF protein kinase 3 (Homo sapiens) (UniProt Q9UPE1); assay: Inhibition of MSSK1 (unknown origin) assessed as residual activity at 1 uM by Kinomescan method relative to control
[19] = biological target: Serine/threonine-protein kinase 17A (Homo sapiens) (UniProt Q9UEE5); assay: Inhibition of wild-type human partial length DRAK1 (R32 to E363 residues) expressed in bacterial expression system assessed as residual activity at 1 uM by Kinomescan method
Chain of Serine/threonine-protein kinase 17A (Homo sapiens) (Q9UEE5 whole entry, the tested form may be a part): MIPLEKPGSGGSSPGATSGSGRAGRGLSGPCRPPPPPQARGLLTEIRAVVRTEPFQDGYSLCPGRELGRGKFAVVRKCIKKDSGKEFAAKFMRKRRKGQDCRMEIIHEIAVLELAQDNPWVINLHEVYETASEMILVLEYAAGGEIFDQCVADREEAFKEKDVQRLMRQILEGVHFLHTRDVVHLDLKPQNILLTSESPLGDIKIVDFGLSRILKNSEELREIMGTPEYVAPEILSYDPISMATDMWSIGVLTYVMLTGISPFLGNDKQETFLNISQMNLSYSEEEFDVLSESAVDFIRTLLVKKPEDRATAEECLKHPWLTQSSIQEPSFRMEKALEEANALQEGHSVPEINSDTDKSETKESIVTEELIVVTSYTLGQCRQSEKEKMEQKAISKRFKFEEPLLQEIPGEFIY

[20] = biological target: Tyrosine-protein kinase Mer (Homo sapiens) (UniProt Q12866); assay: Inhibition of wild-type human partial length c-MER (R557 to L884 residues) expressed in bacterial expression system assessed as residual activity at 1 uM by Kinomescan method relative to control
[21] = biological target: Calcium/calmodulin-dependent protein kinase type 1 (Homo sapiens) (UniProt Q14012); assay: Inhibition of wild-type human full length CAMK1A (M1 to L370 residues) expressed in bacterial expression system assessed as residual activity at 1 uM by Kinomescan method relative to control
Chain of Calcium/calmodulin-dependent protein kinase type 1 (Homo sapiens) (Q14012 whole entry, looked up, the tested form may be a part): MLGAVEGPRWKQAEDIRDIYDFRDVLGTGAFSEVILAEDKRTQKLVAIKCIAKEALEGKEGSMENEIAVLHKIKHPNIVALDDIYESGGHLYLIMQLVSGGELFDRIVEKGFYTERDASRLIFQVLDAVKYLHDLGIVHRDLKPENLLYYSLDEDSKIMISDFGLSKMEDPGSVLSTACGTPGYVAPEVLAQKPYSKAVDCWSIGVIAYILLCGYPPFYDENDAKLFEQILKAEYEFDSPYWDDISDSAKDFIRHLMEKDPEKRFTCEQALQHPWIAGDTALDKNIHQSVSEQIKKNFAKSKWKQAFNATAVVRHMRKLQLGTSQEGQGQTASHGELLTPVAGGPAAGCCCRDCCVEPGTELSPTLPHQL

[22] = biological target: Ribosomal protein S6 kinase alpha-3 (Homo sapiens) (UniProt P51812); assay: Inhibition of wild-type human partial length N-terminal RSK2 kinase domain 1 (M1 to D394 residues) expressed in mammalian expression system assessed as residual activity at 1 uM by Kinomescan method relative to control
[23] = biological target: Serine/threonine-protein kinase 16 (Homo sapiens) (UniProt O75716); assay: Inhibition of wild-type human partial length STK16 (G11 to I305 residues) expressed in bacterial expression system assessed as residual activity at 1 uM by Kinomescan method relative to control
[24] = biological target: Serine/threonine-protein kinase Nek11 (Homo sapiens) (UniProt Q8NG66); assay: Inhibition of wild-type human partial length NEK11 (M1 to E313 residues) expressed in mammalian expression system assessed as residual activity at 1 uM by Kinomescan method relative to control
[25] = biological target: Inhibitor of nuclear factor kappa-B kinase subunit beta (Homo sapiens) (UniProt O14920); assay: Inhibition of wild-type human full length IKK-beta (M1 to S756 residues) expressed in mammalian expression system assessed as residual activity at 1 uM by Kinomescan method relative to control
Chain of Inhibitor of nuclear factor kappa-B kinase subunit beta (Homo sapiens) (O14920 whole entry, the tested form may be a part): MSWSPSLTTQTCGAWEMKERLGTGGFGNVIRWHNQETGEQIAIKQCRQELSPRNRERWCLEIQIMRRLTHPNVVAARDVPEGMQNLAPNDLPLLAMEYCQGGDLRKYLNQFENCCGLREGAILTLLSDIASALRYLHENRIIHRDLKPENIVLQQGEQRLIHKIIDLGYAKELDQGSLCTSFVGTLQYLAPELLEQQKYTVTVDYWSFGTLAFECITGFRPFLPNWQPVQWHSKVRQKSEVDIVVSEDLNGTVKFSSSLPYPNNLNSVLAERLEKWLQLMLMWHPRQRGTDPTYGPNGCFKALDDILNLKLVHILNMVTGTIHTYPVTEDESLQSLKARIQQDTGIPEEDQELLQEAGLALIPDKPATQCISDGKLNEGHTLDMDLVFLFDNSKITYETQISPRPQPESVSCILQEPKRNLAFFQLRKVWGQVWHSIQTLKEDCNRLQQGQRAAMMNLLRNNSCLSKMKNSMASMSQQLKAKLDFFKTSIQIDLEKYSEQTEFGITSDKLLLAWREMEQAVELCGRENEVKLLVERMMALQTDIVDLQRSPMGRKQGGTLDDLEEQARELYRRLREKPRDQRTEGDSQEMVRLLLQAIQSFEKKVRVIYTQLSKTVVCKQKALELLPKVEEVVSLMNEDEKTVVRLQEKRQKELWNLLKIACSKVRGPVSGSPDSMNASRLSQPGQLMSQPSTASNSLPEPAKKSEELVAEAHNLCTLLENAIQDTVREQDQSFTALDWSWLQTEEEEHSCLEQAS

[26] = biological target: Serine/threonine-protein kinase TBK1 (Homo sapiens) (UniProt Q9UHD2); assay: Inhibition of wild-type human full length TBK1 (M1 to L729 residues) expressed in mammalian expression system assessed as residual activity at 1 uM by Kinomescan method relative to control
[27] = biological target: Rhodopsin kinase GRK7 (Homo sapiens) (UniProt Q8WTQ7); assay: Inhibition of wild-type human full length GRK7 (M1 to L553 residues) expressed in mammalian expression system assessed as residual activity at 1 uM by Kinomescan method relative to control
Chain of Rhodopsin kinase GRK7 (Homo sapiens) (Q8WTQ7 whole entry, the tested form may be a part): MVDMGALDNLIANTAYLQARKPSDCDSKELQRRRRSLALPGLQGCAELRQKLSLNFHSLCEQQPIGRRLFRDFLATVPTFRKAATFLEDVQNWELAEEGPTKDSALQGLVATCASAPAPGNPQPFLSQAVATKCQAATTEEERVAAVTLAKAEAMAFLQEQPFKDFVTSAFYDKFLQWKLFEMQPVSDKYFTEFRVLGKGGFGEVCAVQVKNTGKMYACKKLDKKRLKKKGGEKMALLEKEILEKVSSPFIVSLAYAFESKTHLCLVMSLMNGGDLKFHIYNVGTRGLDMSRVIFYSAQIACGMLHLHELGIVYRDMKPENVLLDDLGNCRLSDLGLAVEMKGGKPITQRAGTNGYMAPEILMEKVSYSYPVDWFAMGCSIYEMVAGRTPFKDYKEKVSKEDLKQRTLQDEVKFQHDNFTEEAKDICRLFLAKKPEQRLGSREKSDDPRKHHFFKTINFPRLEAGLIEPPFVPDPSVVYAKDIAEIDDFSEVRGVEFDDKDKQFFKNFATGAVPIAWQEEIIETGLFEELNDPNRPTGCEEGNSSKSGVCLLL

SMILES: CCOc1nc(Nc2ccc(C(=O)N3CCOCC3)cc2OC)nc2[nH]ccc12
- Activity [1]: 87.5%
- Activity [2]: 107%
- Activity [3]: 74%
- Activity [4]: 81.6%
- Activity [5]: 107%
- solubility at 4 h [6]: 127 µg/mL (≈ 320 µM)
- Activity [7]: 100%
- Activity [8]: 34.3%
- Activity [9]: 96.9%
- Activity [10]: 107%
- Activity [11]: 45.6%
- Activity [12]: 2.52%
- Activity [13]: 80.2%
- Activity [14]: 106%
- Activity [15]: 117%
- Activity [16]: 97.8%
- Activity [17]: 100%
- Activity [18]: 78.1%
- Activity [19]: 97.9%
- Activity [20]: 97%
- Activity [21]: 85.9%
- Activity [22]: 65.1%
- Activity [23]: 98.7%
- Activity [24]: 86.5%
- Activity [25]: 101%
- Activity [26]: 91.7%
- Activity [27]: 98.4%
